Consider two substances from patent publication US12686704B2, “Procoagulant peptides and use thereof” (RAMBAM MED-TECH LTD., priority 2021, dated 2026).

The test system of one assay is rat. Kind of assay: Rat models of uncontrolled hemorrhage (spleen transection, liver laceration). It counts as in vivo. The conditions noted are these: for bleeding (blood loss): 150 μg/kg subcutaneous half an hour before surgery, I.V. 2 minutes following trauma, or topical, FIGS. 2A-2F; for bleeding (blood loss) / bleeding time: vs PBS control; for bleeding time: FIG. 2G. The protocol: FIGS. 2A-2I include vertical bar graphs showing the effect of modified heparanase procoagulant peptides of the invention using different rat bleeding models. Two rat models of uncontrolled hemorrhage were applied. The models include spleen transection (2A) and liver laceration (2B). Blood loss was recorded every 2 minutes for the first 10 minutes after injury and at 5-minutes intervals thereafter for a total of 30 minutes. Shed blood were collected by placing reweighed gauze below the organ targeted for injury. The gauze was changed and weighed at the blood-loss intervals. Peptides 16 and 16AC were injected subcutaneously (150 μg/kg) half an hour before surgery (2A-2B) or intravenously (I.V.) in the saphenous vein (150 μg/kg) 2 minutes following the trauma (2C, 2D, 2H, and 2I). The third route of administration was topical application (150 μg/kg) on the incision site (2E-2F). The peptides were dissolved in phosphate-buffered saline (PBS) and added at a rate of a drop every 5 seconds. Control group (‘C’) was administered (either subcutaneously, intravenously, or topically) with the vehicle phosphate buffered saline (PBS). […] Mann-Whitney U test was used. Results represent mean±SD. *p<0.01, **p<0.001. In addition to Peptide 16 and Peptide 16AC, Peptide 16C, and Peptide 16A were also analyzed and compared in (2H and 2I).
Two rat models of uncontrolled hemorrhage were applied as previously described (Morgan et al., 2015; JAMA Surg.). The models included spleen transection (FIG. 2A) and liver laceration (FIG. 2B). Briefly, blood loss was recorded every 2 minutes for the first 10 minutes after injury and at 5-minute intervals thereafter for a total of 30 minutes. Shed blood were collected by placing reweighed gauze below the organ targeted for injury. The gauze was changed and weighed at the blood-loss intervals. Peptides 16 and 16AC were injected subcutaneous (150 μg/kg) half an hour before surgery (FIGS. 2A-2B) or intra-venous (I.V.) in the saphenous vein (150 μg/kg) 2 minutes following the trauma (FIGS. 2C-2D). The third route of administration was topical application (150 μg/kg) on the incision site (FIGS. 2E-2F). The peptides, dissolved in phosphate-buffered saline (PBS), were added at a rate of a drop every 5 seconds. Control (C) group was injected or topical applied with the vehicle phosphate buffered saline (PBS).

Assay [1] concerns ICR mice. Kind of assay: Wound healing after full thickness skin incision in ICR mice. It counts as in vivo, mouse. The following applies: for number of capillaries (vessels) in wound skin tissue: H&E staining at end of experiment, FIGS. 4D-4E; for wound healing (wound size): S.C. opposite to the wound on alternate days for one week, FIGS. 4A-4B. The protocol: FIGS. 4A-4E include images, micrographs, and graphs showing that that modified heparanase procoagulant peptides of the invention enhance wound healing. (4A) Full thickness incision of 10 mm was made in the back skin of ICR (normal, no genetic background) mice. On alternate days, for one week after surgery, peptide 16 or peptide 16AC was injected subcutaneously (S.C.) opposite to the wound at the indicated dose. Control group was injected the vehicle (PBS). […] Similar results were observed when the peptides were topically applied as a cream preparation (4C). n—number of mice. Mann-Whitney U test was used. Results represent mean±SD, **p<0.001, ***p<0.0001. (4D) At the end of the experiment the mice were sacrificed and the skin tissue from the wound site excised, and histologically analyzed using hematoxylin and eosin (H&E) staining. Representative images are shown. […] The number of capillaries presented reflects the median and range of five different fields. Mann-Whitney U test was used. Results represent mean±SD, *p<0.01, **p<0.001.
Full thickness incision of 10 mm was made in the back skin of ICR (normal, no genetic background) mice. On alternate days, for one week after surgery, peptide 16 was injected sub-cutaneous (S.C.) opposite to the wound at the indicated dose. Control group was injected the vehicle (PBS). […] Similar results were obtained when the peptides were applied topically in a cream preparation (FIG. 4C). At the end of the experiment the mice were sacrificed and the skin tissue from the wound site was analyzed using H&E staining.

In assay [2] the test system is human umbilical vein endothelial cells (HUVEC). Kind of assay: HUVEC proliferation, XTT assay. Type of assay: cell-based. The conditions noted are these: 2.5 μg/ml and 5 μg/ml; 48 hour; FIG. 5A. The method, then: FIGS. 5A-5B include vertical bar graphs showing that heparanase procoagulant peptides induce human umbilical vein endothelial cells (HUVEC) proliferation. (5A) HUVEC cells were seeded in 96 wells plate (5,000 cells/well). Increasing concentration of peptides 16 and 16AC (2.5 μg/ml, and 5 μg/ml) were added to the cells. […] (5B) Similar experiment as described in 5A, but 10 ng/ml of peptide 7 (TFPI-2 derived inhibitory peptide) was added to the cells for 1 hour prior to the addition of peptide 16 (5 μg/ml) or 16AC (5 μg/ml).
Briefly, HUVEC cells were seeded in 96 wells plate (5,000 cells/well). Increasing concentration of peptides 16 and 16AC (2.5 μg/ml, and 5 μg/ml) were added to the cells.

The test system of assay [3] is ICR mice. Kind of assay: Immunostaining of wound skin sections of ICR mice. Type of assay: in vivo, mouse. The conditions noted are these: subcutaneous opposite to the wound every other day for a week; for expression of heparanase in micro-vessels: FIG. 10A; for expression of TF in micro-vessels: FIG. 10B; for expression of TFPI-1 in micro-vessels: FIG. 10C; for expression of TFPI-2 in micro-vessels: FIG. 10D. The method, then:
FIGS. 10A-10D include micrographs of immunohistochemistry assays showing that heparanase procoagulant peptides increase the level of heparanase, TF, TFPI and TFPI-2. Full thickness incision was made in the back skin of ICR mice. Each group included 5 mice. From the day of surgery either peptide 16 or 16AC was injected subcutaneous opposite to the wound, every other day for a week. At the end of the experiment the mice were sacrificed and the wound skin section was analyzed by immunostaining. […] Images were visualized through ×50 magnitude, with 0.82 MDC objective lens, captured with a Nikon E995 digital camera (Nikon, Tokyo, Japan), and processed with Adobe Photoshop software (Adobe Systems, San Jose, CA, USA).
Briefly, full thickness incision was made in the back skin of ICR mice. Each group included 5 mice. From the day of surgery either peptide 16 or 16AC was injected subcutaneous opposite to the wound, every other day for a week. At the end of the experiment the mice were sacrificed and the wound skin section was analyzed by immunostaining.

Take “GSKRRKLRVYLHCT [Peptide 16, peptide comprising the procoagulant domain of heparanase, non-modified]”: the “bleeding (blood loss)” value with rat is recorded as “significant reduction”. In the assay on rat (150 μg/kg), the bleeding time result is listed as “significant reduction”. Besides, in the assay with ICR mice [1], the “number of capillaries (vessels) in wound skin tissue” value (from here on “number of capillaries (vessels)”) is “significant increase of capillaries” and the “wound healing (wound size)” value is recorded as “significantly enhanced wound healing”. Further, the cell proliferation result in assay [2] is reported as “significant increase in cell proliferation”. Further, in the assay on ICR mice [3], the “expression of heparanase in micro-vessels” value is recorded as “significant increase in the expression”, the “expression of TF in micro-vessels” value was “significant increase in the expression”, the “expression of TFPI-1 in micro-vessels” value is listed as “significant increase in the expression” and the “expression of TFPI-2 in micro-vessels” value is “significant increase in the expression”.

Turning to “acetyl-GSKRRKLRVYLHCT-amid (Ac-GSKRRKLRVYLHCT-NH2) [Peptide 16AC, peptide 16 comprising a C-terminal amid group and an N-terminal acetyl group]”, the “bleeding (blood loss)” value in the assay on rat is “significant reduction”. Also, the “effect in reducing the bleeding, comparison between peptides” value in the assay on rat (150 μg/kg, FIGS. 2A-2I (16C and 16A: I.V., FIGS. 2H-2I)) was “significantly better effect in reducing the bleeding compared to peptide 16”. For the same substance, the bleeding time entry in the assay with rat (150 μg/kg) is “significant reduction”. In the assay with ICR mice [1], the “number of capillaries (vessels)” value is given as “significantly better effect” and the “wound healing (wound size)” value is recorded as “significantly better effect on wound size”. The “number of capillaries (vessels)” value in the assay with ICR mice [1] (listed as peptide 16AC) is reported as “significant increase of capillaries”. In addition, the cell proliferation result in assay [2] is reported as “significant increase in cell proliferation”. In the assay with ICR mice [3], the “expression of heparanase in micro-vessels” value is “significant increase in the expression”, the “expression of TF in micro-vessels” value is on record as “significant increase in the expression”, the “expression of TFPI-1 in micro-vessels” value is recorded as “significant increase in the expression” and the “expression of TFPI-2 in micro-vessels” value is reported as “significant increase in the expression”.
